≈ marks a conversion by molar mass, not a printed value.
Experiments:
Klebsiella pneumoniae = assay: Antibacterial activity against Klebsiella pneumoniae ATCC BAA-1705 after 24 hrs; assay type: functional; conditions: ATCC BAA-1705, 24 h
[1] = system: Mycolicibacterium fortuitum; assay: Antibacterial activity against Mycobacterium fortuitum after 7 days by alamar blue assay; assay type: functional; conditions: 168 h
HepG2 = assay: Cytotoxicity against human HepG2 cells after 24 hrs by MTT assay; assay type: functional, cell-based; conditions: HepG2, 24 h
[2] = Cytotoxicity against […] B16 cells after 24 hrs by MTT assay; assay type: functional, cell-based; conditions: B16, 24 h
Pseudomonas aeruginosa = assay: Antibacterial activity against Pseudomonas aeruginosa ATCC 27853 after 24 hrs; assay type: functional; conditions: ATCC 27853, 24 h
Staphylococcus aureus = assay: Antibacterial activity against Staphylococcus aureus ATCC 29213 after 24 hrs; assay type: functional; conditions: ATCC 29213, 24 h
[3] = Cytotoxicity against HEK cells after 24 hrs by MTT assay; assay type: cell-based; conditions: Homo sapiens, HEK293, 24 h
HeLa = assay: Cytotoxicity against human HeLa cells after 24 hrs by MTT assay; assay type: functional, cell-based
DU-145 = assay: Cytotoxicity against human DU145 cells after 24 hrs by MTT assay; assay type: functional, cell-based; conditions: DU-145, 24 h
Escherichia coli = assay: Antibacterial activity against Escherichia coli ATCC 25922 after 24 hrs; assay type: functional; conditions: ATCC 25922, 24 h
Acinetobacter baumannii = assay: Antibacterial activity against Acinetobacter baumannii ATCC BAA-1605 after 24 hrs; assay type: functional; conditions: ATCC BAA-1605, 24 h
[4] = system: Mycobacteroides abscessus; assay: Antibacterial activity against Mycobacterium abscessus after 7 days by alamar blue assay; assay type: functional; conditions: 168 h
MCF7 = assay: Cytotoxicity against human MCF7 cells after 24 hrs by MTT assay; assay type: functional, cell-based; conditions: MCF7, 24 h
Mycobacteroides chelonae = assay: Antibacterial activity against Mycobacterium chelonae after 7 days by alamar blue assay; assay type: functional; conditions: 168 h
[5] = system: Mycobacterium tuberculosis; assay: Antitubercular activity against Mycobacterium tuberculosis H37Rv after 7 days by alamar blue assay; assay type: functional; conditions: 168 h
CHO-K1 = assay: Cytotoxicity against CHOK1 cells after 24 hrs by MTT assay; assay type: cell-based; conditions: Cricetulus griseus, CHO-K1, 24 h
A549 = assay: Cytotoxicity against human A549 cells after 24 hrs by MTT assay; assay type: functional, cell-based; conditions: A549, 24 h
[6] = Selectivity index, ratio of IC50 for CHOK1 cells to MIC for Mycobacterium tuberculosis H37Rv; assay type: toxicity; conditions: hamster, read-out: Selectivity Index
[7] = Selectivity index, ratio of IC50 for HEK cells to MIC for Mycobacterium tuberculosis H37Rv; assay type: toxicity; conditions: human, read-out: Selectivity Index

SMILES | MIC (Klebsiella pneumoniae) | MIC [1] | IC50 (HepG2) | IC50 [2] | MIC (Pseudomonas aeruginosa) | MIC (Staphylococcus aureus) | IC50 [3] | IC50 (HeLa) | IC50 (DU-145) | MIC (Escherichia coli) | MIC (Acinetobacter baumannii) | MIC [4] | IC50 (MCF7) | MIC (Mycobacteroides chelonae) | MIC [5] | IC50 (CHO-K1) | IC50 (A549) | selectivity ratio [6] | selectivity ratio [7]
Cc1cccc(N(C(=O)c2cccs2)C(C(=O)NC2CCCCC2)c2ccccc2)c1C (configuration not stated) | > 50 µM | > 50 µM | 9.63 µM | 14.3 µM | > 50 µM | > 50 µM | 22.9 µM | 12.7 µM | 9.14 µM | > 50 µM | > 50 µM | > 50 µM | 16.9 µM | > 50 µM | 3.12 µM (≈ 1.39 µg/mL) | 38.2 µM | 17.9 µM | 12.2 | –
Cc1ccc(N(C(=O)c2sc(C)nc2C)C(C(=O)NC2CCCCC2)c2c(F)cc(Br)cc2F)cc1 (configuration not stated) | > 50 µM | > 50 µM | 4.79 µM | 10.8 µM | > 50 µM | > 50 µM | 58.3 µM | 22.2 µM | 12.6 µM | > 50 µM | > 50 µM | > 50 µM | 4.08 µM | > 50 µM | 6.25 µM (≈ 3.6 µg/mL) | 53.3 µM | 11.7 µM | 8.5 | –
Cc1ccc(N(C(=O)c2c(C)noc2C)C(C(=O)NC2CCCCC2)c2ccncc2)cc1 (configuration not stated) | > 50 µM | > 50 µM | 8.48 µM | 28.6 µM | > 50 µM | > 50 µM | 71.3 µM | 15.8 µM | 9.53 µM | > 50 µM | > 50 µM | > 50 µM | 4.24 µM | > 50 µM | 6.12 µM (≈ 2.73 µg/mL) | 166 µM | 11 µM | 26.6 | –
Cc1cccc(N(C(=O)c2ccncc2)C(C(=O)NC2CCCCC2)c2ccccc2)c1C (configuration not stated) | > 50 µM | > 50 µM | 6.99 µM | 12.2 µM | > 50 µM | > 50 µM | 38 µM | 13.8 µM | 11.3 µM | > 50 µM | > 50 µM | > 50 µM | 6.41 µM | > 50 µM | 6.25 µM (≈ 2.76 µg/mL) | 81.4 µM | 12.9 µM | 13 | –
Cc1ccc(N(C(=O)c2sc(C)nc2C)C(C(=O)NC2CCCCC2)c2ccc(Cl)cc2)cc1 (configuration not stated) | > 50 µM | > 50 µM | 5.33 µM | 23 µM | > 50 µM | > 50 µM | 11.8 µM | 11.9 µM | 9 µM | > 50 µM | > 50 µM | > 50 µM | 3.19 µM | > 50 µM | 0.78 µM (≈ 0.387 µg/mL) | 7.37 µM | 10.3 µM | 8.9 | –
Cc1cccc(N(C(=O)c2ccc[nH]2)C(C(=O)NC2CCCCC2)c2cccnc2)c1C (configuration not stated) | > 50 µM | > 50 µM | 9.58 µM | 13.7 µM | > 50 µM | > 50 µM | 54.3 µM | 10 µM | 12.6 µM | > 50 µM | > 50 µM | > 50 µM | 5.51 µM | > 50 µM | 12.5 µM (≈ 5.38 µg/mL) | 267 µM | 17.5 µM | 21.4 | –
Cc1cccc(N(C(=O)C2CCCCN2)C(C(=O)NC2CCCCC2)c2ccccc2)c1C (configuration not stated) | > 50 µM | > 50 µM | 10.6 µM | 16.4 µM | > 50 µM | > 50 µM | 174 µM | 10.3 µM | 8.82 µM | > 50 µM | > 50 µM | > 50 µM | 3.31 µM | > 50 µM | 3.12 µM (≈ 1.4 µg/mL) | 54.4 µM | 9.74 µM | 4.3 | 55.7

— ChEMBL document CHEMBL4422644, “Synthesis and evaluation of α-aminoacyl amides as antitubercular agents effective on drug resistant tuberculosis” (Eur J Med Chem, 2019)
